PubChem BioAssay (NCI)
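In this assay, cells in 96-well plates receive the compound at five concentrations for 48 hours. Endpoints are linearly interpolated between the surrounding concentrations. Abbreviation: GI50, concentration required for 50% inhibition of growth. TGI: concentration producing complete growth inhibition.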

Assays:
Assay in all cases: growth of human tumour cells (NCI), 48 h
[1] = tested on: 786-0 renal
[2] = tested on: A498 renal
[3] = tested on: A549 NSCLC
[4] = tested on: CCRF-CEM leukemia
[5] = tested on: MDA-MB-231 breast
[6] = tested on: SK-MEL-5 melanoma
[7] = tested on: SN12C renal
[8] = tested on: SW-620 colon
[9] = tested on: TK-10 renal
[10] = tested on: T-47D breast

SMILES	TGI [1]	TGI [2]	TGI [3]	TGI [4]	TGI [5]	TGI [6]	TGI [7]	TGI [8]	TGI [9]	TGI [10]	GI50 [2]	GI50 [3]	GI50 [4]	GI50 [5]	GI50 [6]	GI50 [7]	GI50 [8]	GI50 [10]	GI50 [9]
N#Cc1nc(-c2ccsc2)oc1N	> 100 µM	> 100 µM	> 100 µM	> 100 µM	> 100 µM	> 100 µM	> 100 µM	> 100 µM	> 100 µM	–	–	–	–	–	–	–	–	–	–
Nc1c(-c2ccccc2)c2ccc([N+](=O)[O-])cc2c(=O)n1-c1cccc(C(=O)O)c1	–	> 100 µM	> 100 µM	> 100 µM	> 100 µM	> 100 µM	–	> 100 µM	> 100 µM	> 100 µM	–	–	–	–	–	–	–	–	–
CCOC(=O)CC1(N)CC2c3ccccc3OC(=O)C2C(=O)N1 (stereo not given)	> 100 µM	> 100 µM	> 100 µM	> 100 µM	> 100 µM	–	> 100 µM	> 100 µM	> 100 µM	> 100 µM	–	–	–	–	–	–	–	–	–
Oc1ccccc1/C=N/c1nc(-c2ccccc2)cs1	–	> 100 µM	> 100 µM	65 µM	> 100 µM	> 100 µM	> 100 µM	40 µM	> 100 µM	> 100 µM	77 µM	> 100 µM	19.7 µM	20 µM	47.6 µM	30.9 µM	14 µM	> 100 µM	33 µM
COc1ccc(C2CC(c3cccc(Nc4ccncc4)c3)=NN2c2ccccc2)cc1 (stereo not given)	–	9.69 µM	–	11.6 µM	3.04 µM	3.28 µM	3.23 µM	3.43 µM	4.43 µM	5.83 µM	1.41 µM	–	3.44 µM	1.62 µM	1.8 µM	1.72 µM	1.81 µM	2.3 µM	2.12 µM
COc1cc(-c2cc(OC)c(OC)c3ccc(Br)cc23)c2cc(Br)ccc2c1OC	34.2 µM	44.9 µM	45.2 µM	–	49.5 µM	> 100 µM	81.6 µM	> 100 µM	52.7 µM	95.4 µM	–	–	–	–	–	–	–	–	–
N#Cc1cc2c(n(C3OC(CO)C(O)C(O)C3O)c1=S)CCC2 (stereo not given)	> 100 µM	> 100 µM	> 100 µM	> 100 µM	> 100 µM	> 100 µM	> 100 µM	–	> 100 µM	> 100 µM	–	–	–	–	–	–	–	–	–
CCOC(=O)CC1C(C(=O)OCC)=Cn2c([nH]c3cccc4cccc2c43)=C1C(=O)OCC (stereo not given)	> 100 µM	> 100 µM	> 100 µM	> 100 µM	–	> 100 µM	> 100 µM	> 100 µM	> 100 µM	> 100 µM	–	–	–	–	–	–	–	–	–
CCOC(=O)NCC(=O)NCC(=O)NCC(N)=O	> 100 µM	–	> 100 µM	> 100 µM	> 100 µM	> 100 µM	–	> 100 µM	> 100 µM	> 100 µM	–	–	–	–	–	–	–	–	–
CC(C)C(Nc1c2ccccc2[n+](C)c2ccccc12)C(=O)O (stereo not given)	> 100 µM	> 100 µM	> 100 µM	–	–	> 100 µM	> 100 µM	> 100 µM	> 100 µM	–	–	–	–	–	–	–	–	–	–
Cc1cc(C)n(C(=CC(=O)C(Cl)Cl)n2nc(C)cc2C)n1	10 µM	> 100 µM	67 µM	4.46 µM	12.3 µM	20.3 µM	–	40.6 µM	15.1 µM	28.6 µM	–	–	–	–	–	–	–	–	–
COc1cc2ccc(C(C)NCC#N)cc2cc1OC (stereo not given)	> 100 µM	> 100 µM	> 100 µM	–	> 100 µM	> 100 µM	> 100 µM	> 100 µM	> 100 µM	> 100 µM	–	–	–	–	–	–	–	–	–
Nc1ccc2c3c1cccc3c(=O)n1c3ccc(Cc4ccc5c(c4)nc4c6ccc(N)c7cccc(c(=O)n54)c76)cc3nc21	> 100 µM	> 100 µM	> 100 µM	> 100 µM	> 100 µM	> 100 µM	> 100 µM	> 100 µM	–	–	–	–	–	–	–	–	–	–	–
CC(C)(C)c1cc(C(C)(C)C)c2sc(=O)oc2c1O	38.1 µM	27.3 µM	27.6 µM	> 100 µM	33.4 µM	27.9 µM	27.1 µM	–	24.1 µM	19.8 µM	–	–	–	–	–	–	–	–	–
Cc1cc(C)nc(NS(=O)(=O)c2ccc(NC(=O)c3ccc4nc5ccccc5c(Nc5ccc(S(=O)(=O)N=C(N)N)cc5)c4c3)cc2)n1	> 100 µM	–	> 100 µM	> 100 µM	> 100 µM	> 100 µM	> 100 µM	> 100 µM	> 100 µM	> 100 µM	–	–	–	–	–	–	–	–	–
CCOC(=O)C(NC(=O)c1ccccc1)(Nc1ccc(S(=O)(=O)Nc2cc(C)on2)cc1)C(F)(F)F (stereo not given)	> 100 µM	–	> 100 µM	> 100 µM	> 100 µM	> 100 µM	> 100 µM	> 100 µM	> 100 µM	> 100 µM	–	–	–	–	–	–	–	–	–
CCOC(=O)/C(=C/c1cn(C(C)=O)c2ccccc12)P(=O)(OC)OC	–	52.4 µM	> 100 µM	68.1 µM	> 100 µM	> 100 µM	> 100 µM	> 100 µM	> 100 µM	60.5 µM	–	–	–	–	–	–	–	–	–
O=C(O)C1C2OC(C(Br)C2Br)C1C(=O)O (stereo not given)	> 100 µM	> 100 µM	> 100 µM	–	> 100 µM	> 100 µM	> 100 µM	> 100 µM	> 100 µM	> 100 µM	–	–	–	–	–	–	–	–	–
CC(C)(C)C(=O)C(N)C(=O)C(C)(C)C	> 100 µM	–	> 100 µM	> 100 µM	> 100 µM	> 100 µM	> 100 µM	> 100 µM	> 100 µM	> 100 µM	–	–	–	–	–	–	–	–	–
Cc1cc(C)n(C(C)(C(=O)Cc2ccccc2)n2nc(C)cc2C)n1	> 100 µM	> 100 µM	> 100 µM	–	> 100 µM	> 100 µM	> 100 µM	> 100 µM	> 100 µM	> 100 µM	–	–	–	–	–	–	–	–	–
CCOC(=O)CCC(NC(=O)c1ccc(NCc2ccc3nc(OC)c(OC)nc3c2)c2ccccc12)C(=O)OCC (stereo not given)	> 100 µM	> 100 µM	> 100 µM	–	> 100 µM	> 100 µM	> 100 µM	> 100 µM	> 100 µM	> 100 µM	–	–	–	–	–	–	–	–	–
